Results reported in US11878072B2, “Compositions and methods utilizing poly(vinyl alcohol) and/or other polymers that aid particle transport in mucus” (priority 2012, dated 2024).

Description: An aqueous dispersion containing pyrene and one of the stabilizers/surface-altering agents listed above was stirred with milling media until particle size was reduced below 500 nm (as measured by dynamic light scattering).

| Sample (relative) <Vmean>rel (relative sample velocity) | Sample <Vmean> (ensemble-average velocity) | Substance |
| --- | --- | --- |
| 0.17 | 0.94 um/s | Tween 80 |
| −0.02 | 0.42 um/s | Tyloxapol |
